The values below come from patent publication US12419296B2, “Remote detection of pre-determined termite feeding activities in soil” (University of Florida Research Foundation, Inc., priority 2019, dated 2025).

Structures are written as SMILES.

In series [1] the test system is rat. Conditions: cited from earlier work.
The subject of series [2] is rat. As to the kind of experiment: rat oral LD50 (acute toxicity). The class given is in vivo. Conditions: relative to soil termiticide fipronil.

With `O=C(NC(=O)c1c(F)cccc1F)Nc1cc(Cl)c(OC(F)(F)C(F)C(F)(F)F)c(Cl)c1F` (stereo not drawn) [noviflumuron], the “rat oral LD50” value in the series with rat [1] is reported as > 3,160 mg/kg. In the series with rat [2], the “fold less toxic than fipronil (rat oral LD50)” value is recorded as 32 fold.
Regarding `N#Cc1nn(-c2c(Cl)cc(C(F)(F)F)cc2Cl)c(N)c1[S+]([O-])C(F)(F)F` (stereo not drawn) [fipronil], the “rat oral LD50” value in the series with rat [1] is 97 mg/kg.
